These results are taken from the NIST ThermoML archive (doi:10.1016/j.fluid.2018.05.018).

The conditions of the series: Crystal; visual observation.

± gives the expanded uncertainty stated by the source.

Turning to `CCOC(=O)N1CCC(=C2c3ccc(Cl)cc3CCc3cccnc32)CC1` [claritine], the Normal melting temperature amounted to 134 ± 4 °C.
